Several values for one entry are separate records, joined by “and”; a condition that tells them apart may be missing. Equal entries are not always repeated.
Assays:
[1] = Percent reduction of thrombin receptor activating peptide (12 uM) induced platelet aggregation was determined at 0.5 mM concentration; format: functional, Homo sapiens
[2] = Percent reduction of collagen (5 ug/mL) induced platelet aggregation was determined at 0.5 mM concentration; format: functional, Homo sapiens
[3] = Percent reduction of collagen (1 ug/mL) induced platelet aggregation was determined at 0.5 mM concentration; format: functional, Homo sapiens
[4] = Percent reduction of ADP (4 uM) induced platelet aggregation was determined at 0.5 mM concentration; format: functional, Homo sapiens
[5] = Percent reduction of ADP (4 uM) induced platelet aggregation was determined at 0.25 mM concentration; format: functional, Homo sapiens
Rattus norvegicus [6] = assay: Percent reduction in infarct volume after treatment at 40.0 mg/kg dose; format: functional
Rattus norvegicus [7] = assay: Percent reduction in infarct volume after treatment at 20.0 mg/kg dose; format: functional
Rattus norvegicus [8] = assay: Percent reduction in infarct volume after treatment at 10.0 mg/kg dose; format: functional
Rattus norvegicus [9] = assay: Percent reduction in infarct volume after treatment at 0.0 mg/kg dose; format: functional
[10] = Percent reduction of thrombin receptor activating peptide (12 uM) induced platelet aggregation was determined at 0.25 mM concentration; format: functional, Homo sapiens
[11] = Percent reduction of collagen (1 ug/mL) induced platelet aggregation was determined at 0.25 mM concentration; format: functional, Homo sapiens
Rattus norvegicus [12] = assay: Percent reduction in infarct size after bolus injection at 0.07 mol/kg dose; format: functional
[13] = Percent reduction of collagen (5 ug/mL) induced platelet aggregation was determined at 0.25 mM concentration; format: functional, Homo sapiens
Rattus norvegicus [14] = assay: Percent reduction in infarct size after bolus injection at 0.1 mol/kg dose; format: functional

Row | SMILES | Reduction [1] [%] | Reduction [2] [%] | Reduction [3] [%] | Reduction [4] | Reduction [5] [%] | Reduction (Rattus norvegicus [6]) [%] | Reduction (Rattus norvegicus [7]) [%] | Reduction (Rattus norvegicus [8]) [%] | Reduction (Rattus norvegicus [9]) [%] | Reduction [10] [%] | Reduction [11] [%] | Reduction (Rattus norvegicus [12]) [%] | Reduction [13] [%] | Reduction (Rattus norvegicus [14]) [%]
1 | Cc1ncc(CNC(=O)Nc2ccc(F)cc2)c(CO)c1O | 0 | 1 | 0 | 0% |  |  |  |  |  |  |  |  |  | 
2 | Cc1ncc(C/N=C(\S)Nc2ccc(F)cc2)c(CO)c1O | 6 | 4 | 23 | 18% |  |  |  |  |  |  |  |  |  | 
3 | Cc1ncc(CNc2ccc(C(=N)N)cc2)c(CO)c1O | 88 | 24 | 10 | 79% |  |  |  |  |  |  |  |  |  | 
4 | Cc1ncc(Cn2cnnn2)c(CO)c1O | 7 | 0 | 6 | 4% |  |  |  |  |  |  |  |  |  | 
5 | Cc1ncc(Cn2nnc(N)n2)c(CO)c1O | 2 | 0 | 1 | 0% |  |  |  |  |  |  |  |  |  | 
6 | Cc1ncc(CNc2ccc(-c3ccc(C(=N)N)cc3)cc2)c(CO)c1O |  | 30 | 93 | 82% and 66% | 63 | 2.9 | 26.5 | 30.5 | 40 | 93 | 41 | 30 | 1 | 
7 | Cc1ncc(Cn2ccnc2C)c(CO)c1O | 3 | 1 | 0 | 1% |  |  |  |  |  |  |  |  |  | 
8 | Cc1ncc(COP(=O)(O)O)c(C=O)c1O [PYRIDOXAL PHOSPHATE ANHYDROUS] | 0 | 0 | 0 | 0% |  |  |  |  |  |  |  |  |  | 31
9 | Cc1ncc(CO)c(CO)c1O [PYRIDOXINE] | 0 | 4 | 4 | 0% |  |  |  |  |  |  |  |  |  | 
